Source: US7071206B2, “Agents for treating neurodegenerative disorders” (Medivation, Inc., priority 1995, dated 2006)
Values joined by “and” are separate entries in the source; they are usually repeats but may differ in a detail not shown here. Identical values can stand only once.

System: patients suffering from Alzheimer's disease
Assay: Clinical trial of dimebon tablets, inventors' scale (E. E. Bukatina et al.; 0 = absence of a symptom, 4 = greatest manifestation)
Type: in vivo, human
Conditions: for mean value of delirium manifestations: 10 patients with delirious symptoms prior to treatment; for mean value of depressive manifestations: 12 patients with depressive manifestations; for Item 1 (orientation in locality, time, immediate surroundings and one's own personality): mean value / Item 2 (orientation in space): mean value / Item 3 (memory for the past): mean value / Item 4 (memory for the present): mean value / Item 5 (life in the past): mean value / Item 6a (speech): mean value / Item 6b (difficulty in finding words, and distortion of words): mean value / Item 6g (speech): mean value / Item 7 (concentration of attention): mean value / Item 8b (low spirits): mean value / Item 9 (delirium): mean value / Item 13 (irritability): mean value / Item 14 (anxiety): mean value / Item 15 (asthenia): mean value / Item 16 (headaches): mean value / Item 17 (dizziness): mean value / Item 18 (tearfulness): mean value / Item 19 (spontaneous activity): mean value / Item 20 (elementary self-service): mean value: mean of 14 patients
Method: The test was carried out under the direct supervision by two of the inventors, namely E. E. Bukatina and V. Grigorieva, in 14 patients who agreed to take part in the tests, 13 of whom lived in a boarding house for senile persons and one patient lived with their family.
Alzheimer's disease was diagnosed on the basis of criteria ICD-10 NINCDS ADRDA.
Dimebon in the form of tablets (comprising 10 mg of dimebon, 30 mg of lactose, 5 mg of magnesium stearate was prescribed for oral administration in a dose of 0.02 g three to times a day. The patients living in the boarding house received dimebon for 58 days. A patient (observation 14) who was under outpatient observation continued taking the agent for a month after the completion of the tests.
Before the treatment with dimebon, and at 4 and 8 weeks after treatment the patients were examined according to Hazegawa's scale and the inventors' scale (“Social and Clinical Psychiatry”, 1992, No.4, pp.29–37) which includes the following indexes: (1) orientation in locality, time, immediate surroundings and one's own personality; (2) orientation in space; (3) memory for the past; (4) memory for the present; (5) “life in the past”; (6) (a) articulation, (b) difficulty in finding words, and distortion of words; (c) naming of objects; (d) following instructions; (7) concentration (of attention); (8) an affective sphere; (a) high spirits, (b) low spirits; (9) delirium; (10) hearing hallucinations; (11) visual hallucinations; (12) senile or senile-like confusion (when motion anxiety is accompanied by the revival of the past experience); (13) irritability; (14) anxiety; (15) asthenia; (16) headaches; (17) dizziness; (18) tearfulness; (19) spontaneous activity; (20) elementary self-service; and (21 control of sphincters.
According to the Hazegawa's scale, the 0 score indicates the poorest result; on the contrary, according to the inventors' scale, the 0 score indicates the absence of a symptom 4 score indicates the greatest manifestation thereof. […] Before the therapy was started, the patients had been independently examined by two doctors who used the inventors' scale. The examination during the treatment was carried out by the doctors using both the scales. The evaluation according to all the inventors' scale points during all the tests and their variations during the treatment with dimebon are given in the Appendix.
According to the inventors' scale, the degree of the disturbance if the cognitive functions was determined by a sum of evaluations according to the first 5 scale points reflecting the condition of memory, orientation and relation with the reality. The disturbance of speech was dealt with separately and was determined by a sum of evaluations according to items 6b-6d.
Both absolute evaluations of the signs under investigation (the evaluation prior to treatment is a mean evaluation of the two examinations) and variations in them were analysed in the course of therapy. In doing so, only those changes that were beyond the range of evaluations obtained in two pre-treatment examinations were taken into consideration.
The test results reflected the condition of the patients at the time of the examination. Any changes in the metal state observed in the interval between the tests and disappearing by the moment of examination according to the scale were described in the section “Clinical Observations”.
The statistical data processing was carried out by means of Student's t-test and Fisher's “Fi” criterion.

[1] = after 4 weeks vs two examinations prior to treatment, + improvement, − deterioration
[2] = after 8 weeks vs two examinations prior to treatment, + improvement, − deterioration
[3] = change at 4 weeks vs K1, K2, per patient, listed as dimebon

## Cc1ccc2c(c1)c1c(n2CCc2ccc(C)nc2)CCN(C)C1 [No. 10, 2,8-dimethyl-5-[2-(6-methyl-3-pyridyl)ethyl]-2,3,4,5-tetrahydro-1H-pyrido[4,3-b]indole]
4 weeks
  Cognitive functions (first 5 scale points): no variations, %: 81.4%
  Cognitive functions (first 5 scale points): no variations, abs.: 57
  Cognitive functions: X (no variations in the function prior to and during the treatment), %: 7.1%
  Cognitive functions: X (no variations in the function prior to and during the treatment), abs.: 5
  Speech functions (items 6b, c, d): no variations, %: 54.8%
  Speech functions (items 6b, c, d): no variations, abs.: 23
  Speech functions: X (no variations in the function prior to and during the treatment), %: 33.3%
  Speech functions: X (no variations in the function prior to and during the treatment), abs.: 14
  mean value of delirium manifestations: 0.8±0.33
8 weeks
  Cognitive functions (first 5 scale points): no variations, %: 53.6%
  Cognitive functions (first 5 scale points): no variations, abs.: 41
  Cognitive functions: X (no variations in the function prior to and during the treatment), %: 7.1%
  Cognitive functions: X (no variations in the function prior to and during the treatment), abs.: 5
  Speech functions (items 6b, c, d): no variations, %: 45.2%
  Speech functions (items 6b, c, d): no variations, abs.: 19
  Speech functions: X (no variations in the function prior to and during the treatment), %: 30.95%
  Speech functions: X (no variations in the function prior to and during the treatment), abs.: 13
  mean value of delirium manifestations: 0.7±0.27
After 4 weeks
  mean value of depressive manifestations: 0.58±0.18 score
  mean score of tearfulness: 0.2±0.18
  Item 1 (orientation in locality, time, immediate surroundings and one's own personality): mean value: 1.75 +/− 0.23 scores
  Item 2 (orientation in space): mean value: 0.32 +/− 0.15 scores
  Item 3 (memory for the past): mean value: 2.29 +/− 0.21 scores
  Item 4 (memory for the present): mean value: 2.21 +/− 0.22 scores
  Item 5 (life in the past): mean value: 1.75 +/− 0.27 scores
  Item 6a (speech): mean value: 0.71 +/− 0.21 scores
  Item 6b (difficulty in finding words, and distortion of words): mean value: 0.43 +/− 0.17 scores
  Item 6g (speech): mean value: 0.46 +/− 0.16 scores
  Item 7 (concentration of attention): mean value: 1.75 +/− 0.26 scores
  Item 8b (low spirits): mean value: 0.5 +/− 0.16 scores
  Item 9 (delirium): mean value: 0.57 +/− 0.29 scores
  Item 13 (irritability): mean value: 0.21 +/− 0.15 scores
  Item 14 (anxiety): mean value: 0.29 +/− 0.12 scores
  Item 15 (asthenia): mean value: 0.18 +/− 0.1 scores
  Item 16 (headaches): mean value: 0.32 +/− 0.21 scores
  Item 17 (dizziness): mean value: 0.71 +/− 0.27 scores
  Item 18 (tearfulness): mean value: 0.07 +/− 0.07 scores
  Item 19 (spontaneous activity): mean value: 1.29 +/− 0.22 scores
  Item 20 (elementary self-service): mean value: 0.07 +/− 0.07 scores
After 8 weeks
  mean value of depressive manifestations: 0.58±0.14 score
  mean score of tearfulness: 0±0.0
  number of patients with signs of aggravation of depression: One
  tearfulness: not a single female patient suffered from tearfulness
  Item 1 (orientation in locality, time, immediate surroundings and one's own personality): mean value: 1.57 +/− 0.23 scores
  Item 2 (orientation in space): mean value: 0.25 +/− 0.13 scores
  Item 3 (memory for the past): mean value: 1.93 +/− 0.24 scores
  Item 4 (memory for the present): mean value: 1.86 +/− 0.23 scores
  Item 5 (life in the past): mean value: 1.57 +/− 0.27 scores
  Item 6a (speech): mean value: 0.54 +/− 0.21 scores
  Item 6b (difficulty in finding words, and distortion of words): mean value: 0.39 +/− 0.2 scores
  Item 6g (speech): mean value: 0.54 +/− 0.19 scores
  Item 7 (concentration of attention): mean value: 1.75 +/− 0.3 scores
  Item 8b (low spirits): mean value: 0.46 +/− 0.14 scores
  Item 9 (delirium): mean value: 0.5 +/− 0.19 scores
  Item 13 (irritability): mean value: 0.14 +/− 0.09 scores
  Item 14 (anxiety): mean value: 0.18 +/− 0.1 scores
  Item 15 (asthenia): mean value: 0.04 +/− 0.03 scores
  Item 16 (headaches): mean value: 0.64 +/− 0.24 scores
  Item 17 (dizziness): mean value: 0.68 +/− 0.25 scores
  Item 18 (tearfulness): mean value: 0.14 +/− 0.14 scores
  Item 19 (spontaneous activity): mean value: 1.18 +/− 0.27 scores
  Item 20 (elementary self-service): mean value: 0.14 +/− 0.4 scores
14 patients, especially patients with mild dementia
  cognitive functions (Hazegawa's scale and inventor's scale), conclusion: significant improvement in cognitive functions
[1]
  Item 1 (orientation in locality, time, immediate surroundings and one's own personality): change during the course of the therapy: +0.11 +/− 0.07 scores
  Item 2 (orientation in space): change during the course of the therapy: +0.11 +/− 0.07 scores
  Item 3 (memory for the past): change during the course of the therapy: +0.07 +/− 0.07 scores
  Item 4 (memory for the present): change during the course of the therapy: 0 +/− 0 scores
  Item 5 (life in the past): change during the course of the therapy: +0.14 +/− 0.08 scores
  Item 6a (speech): change during the course of the therapy: +0.11 +/− 0.07 scores
  Item 6b (difficulty in finding words, and distortion of words): change during the course of the therapy: 0 +/− 0 scores
  Item 6g (speech): change during the course of the therapy: −0.07 +/− 0.12 scores
  Item 7 (concentration of attention): change during the course of the therapy: 0 +/− 0.5 scores
  Item 8b (low spirits): change during the course of the therapy: +0.41 +/− 0.17 scores
  Item 9 (delirium): change during the course of the therapy: +0.07 +/− 0.09 scores
  Item 13 (irritability): change during the course of the therapy: +0.29 +/− 0.13 scores
  Item 14 (anxiety): change during the course of the therapy: −0.04 +/− 0.13 scores
  Item 15 (asthenia): change during the course of the therapy: −0.11 +/− 0.09 scores
  Item 16 (headaches): change during the course of the therapy: +0.54 +/− 0.21 scores
  Item 17 (dizziness): change during the course of the therapy: −0.14 +/− 0.17 scores
  Item 18 (tearfulness): change during the course of the therapy: −0.14 +/− 0.14 scores
  Item 19 (spontaneous activity): change during the course of the therapy: 0 +/− 0 scores
  Item 20 (elementary self-service): change during the course of the therapy: +0.07 +/− 0.07 scores
[2]
  Item 1 (orientation in locality, time, immediate surroundings and one's own personality): change during the course of the therapy: +0.18 +/− 0.08 scores
  Item 2 (orientation in space): change during the course of the therapy: +0.11 +/− 0.07 scores
  Item 3 (memory for the past): change during the course of the therapy: +0.29 +/− 0.1 scores
  Item 4 (memory for the present): change during the course of the therapy: _0.29 +/− 0.08 scores
  Item 5 (life in the past): change during the course of the therapy: _0.29 +/− 0.1 scores
  Item 6a (speech): change during the course of the therapy: +0.14 +/− 0.08 scores
  Item 6b (difficulty in finding words, and distortion of words): change during the course of the therapy: −0.04 +/− 0.03 scores
  Item 6g (speech): change during the course of the therapy: −0.07 +/− 0.18 scores
  Item 7 (concentration of attention): change during the course of the therapy: −0.04 +/− 0.06 scores
  Item 8b (low spirits): change during the course of the therapy: +0.43 +/− 0.2 scores
  Item 9 (delirium): change during the course of the therapy: +0.25 +/− 0.17 scores
  Item 13 (irritability): change during the course of the therapy: +0.36 +/− 0.16 scores
  Item 14 (anxiety): change during the course of the therapy: +0.07 +/− 0.09 scores
  Item 15 (asthenia): change during the course of the therapy: 0 +/− 0 scores
  Item 16 (headaches): change during the course of the therapy: +0.21 +/− 0.1 scores
  Item 17 (dizziness): change during the course of the therapy: −0.18 +/− 0.22 scores
  Item 18 (tearfulness): change during the course of the therapy: +0.21 +/− 0.15 scores
  Item 19 (spontaneous activity): change during the course of the therapy: +0.04 +/− 0.11 scores
  Item 20 (elementary self-service): change during the course of the therapy: 0 +/− 0.1 scores
Both after 4-week and 8-week treatment
  impairments according to the first 5 scale points (cognitive functions): lack of impairments
Change at 4 weeks vs K1, K2, per patient
  20. Elementary self-service, Changes (4 weeks): +1
[3]
  2. Orientation in space, Changes (4 weeks): −0.5
  5. Life in the past, Changes (4 weeks): +0.5 (2×) and +1
  6c. Naming of objects, Changes (4 weeks): +0.5 and −1
  7. Concentration, Changes (4 weeks): +0.5 and −0.5
  8b. Lower spirits, Changes (4 weeks): +0.5 (3×) and +2 and +1
  9. Delirium, Changes (4 weeks): +0.5 and +1 and −0.5
  13. Irritability, Changes (4 weeks): +1.5 and +1 (2×) and +0.5
  14. Anxiety, Changes (4 weeks): +0.5 and +1 and −1 (2×)
  15. Asthenia, Changes (4 weeks): −0.5 and −1
  16. Headache, Changes (4 weeks): +1 (2×) and +2 (2×) and −1.5
  17. Dizziness, Changes (4 weeks): +1 and −1 and −2
  18. Tearfulness, Changes (4 weeks): +2 and 0
  6d. Performing instructions, Changes (4 weeks): −1 and +1 (2×)
Change at 4 weeks vs K1, K2 prior to treatment, + improvement, − deterioration, — no change, per patient, listed as dimebon
  1. Orientation in locality and time, Changes (4 weeks): +1 and +0.5
Change at 8 weeks vs K1, K2, + improvement, − deterioration, — no change, per patient, listed as dimebon
  1. Orientation in locality and time, Changes (8 weeks): +1 and +0.5 (3×)
